{"source": "paper PMC12686126", "about": "“LL‐37 Inhibits TMPRSS2‐Mediated S2' Site Cleavage and SARS‐CoV‐2 Infection but Not Omicron Variants” (Cell Proliferation, 2025)", "key": {"[1]": {"system": "S2 subunit of BA.2, BA.2.75, BA.4, BA.5, BQ.1, XBB, XBB.1.5, XBB.1.16, CH.1.1, XBB.1.9, XBB.2.3 and EG.5.1", "format": "binding, SARS‐CoV‐2 Omicron variants"}, "[2]": {"system": "S2 subunit of Omicron variants", "format": "binding, SARS‐CoV‐2 Omicron variants"}}}
{"sequence": "LLGDFFRKSKEKIGKEFKRIVQRIKDFLRNLVPRTES [LL‐37]", "values": [{"measurement": "binding of S2 subunit to immobilised LL‐37", "setting": "[1]", "value": "much lower binding"}, {"measurement": "S2 subunit bound to plasma membrane with facilitation by LL‐37", "setting": "[2]", "value": "S2 subunit of SARS‐CoV‐2 rather than Omicron variants obviously bound"}]}
